{"source": "paper PMC8149352", "about": "(Cancer Chemotherapy and Pharmacology, 2021)", "key": {"[1]": {"assay": "Part A: effect of strong CYP3A inducer rifampin on single-dose pamiparib plasma PK (phase 1 DDI study)", "assay_type": "in vivo, human (patients with advanced solid tumors)", "details": "for Tmax: read-out: pamiparib tmax, median (range)", "procedure": "This was an open-label, parallel-group, phase 1 study consisting of a 2-part core phase and an extension phase. Only results for the core phases are reported herein (Supplementary Fig. 1). […] Blood samples for PK analysis were obtained on days 1 and 10 at predose, and at 0.5, 1, 2, 4, 6, 9, 12, 24, and 48 h postdose. Pamiparib plasma concentrations were determined using a validated liquid chromatography–mass spectrometry/mass spectrometry method (lower limit of quantification 1.0 ng/mL) at Covance Laboratory Services (Salt Lake City, Utah). […]\n(§1) The safety population included all patients who received at least one dose of pamiparib. […] Plasma PK parameters were calculated from pamiparib concentration–time profiles using standard noncompartmental methods. PK parameters were calculated using Phoenix WinNonlin v6.4 or higher (Certara, Princeton, NJ, USA). […] Data for each treatment part were analyzed separately. Log-transformed AUC and Cmax values were analyzed using a linear mixed-effect model analysis assuming a fixed effect for treatment and a random effect for patients. The study design called for ~ 24 patients (12 in each part) to be enrolled to ensure at least 20 (10 in each part) completed the study. This sample size was based on the precedent set by other PK studies of a similar nature and was not based on power calculations."}, "[2]": {"assay": "Part B: effect of strong CYP3A inhibitor itraconazole on single-dose pamiparib plasma PK (phase 1 DDI study)", "assay_type": "in vivo, human (patients with solid tumors)", "details": "for half-life / AUC(0-inf) / AUC(0-t) / Tmax / Cmax: human; for half-life / AUC(0-inf) / AUC(0-t) / Tmax: plasma, oral; for AUC(0-inf): N = 12, read-out: pamiparib AUC0-inf, GLSM (% CV); for AUC(0-t): N = 12, read-out: pamiparib AUC0-tlast, GLSM (% CV); for Tmax: N = 12, read-out: pamiparib tmax, median (range); for Cmax: N = 12, plasma, read-out: pamiparib Cmax, GLSM (% CV)", "procedure": "Part B of the core phase assessed the effect of the strong CYP3A inhibitor itraconazole on the PK of pamiparib in patients with solid tumors. All patients received a single dose of oral pamiparib 20 mg on days 1 and 7, and oral itraconazole 200 mg QD on days 3–8. The 20-mg pamiparib dose, the lowest dose strength available and one-sixth of the highest phase 1 dose (120 mg), was deemed sufficient to cover the plasma exposure increase due to complete blockade of CYP3A by itraconazole. Part B patients fasted for at least 8 h before and at least 4 h after pamiparib administration, except for day 7 upon which itraconazole administration occurred ~ 30 min after completing a meal and pamiparib administration followed within 5 min of itraconazole administration. Blood samples for PK analysis were obtained on days 1 and 7 at the same time points listed above for Part A. After completing the core phase in Part A and Part B, patients were offered participation in the extension phase, in which they were to receive pamiparib PO BID in 28-day cycles until disease progression, unacceptable toxicity, withdrawal of consent, or any other reason for discontinuation. […]\nas §1"}, "[3]": {"assay": "Part A safety: adverse events (NCI CTCAE v5.0), safety population", "assay_type": "in vivo, human (patients with advanced solid tumors)", "procedure": "This was an open-label, parallel-group, phase 1 study consisting of a 2-part core phase and an extension phase. Only results for the core phases are reported herein (Supplementary Fig. 1). […] Blood samples for PK analysis were obtained on days 1 and 10 at predose, and at 0.5, 1, 2, 4, 6, 9, 12, 24, and 48 h postdose. Pamiparib plasma concentrations were determined using a validated liquid chromatography–mass spectrometry/mass spectrometry method (lower limit of quantification 1.0 ng/mL) at Covance Laboratory Services (Salt Lake City, Utah).\n(§2) Adverse events (AEs) were monitored throughout the study and were graded according to the National Cancer Institute Common Terminology Criteria v5.0.\nas §1"}, "[4]": {"assay": "Part B safety: adverse events (NCI CTCAE v5.0), safety population", "assay_type": "in vivo, human (patients with solid tumors)", "procedure": "Part B of the core phase assessed the effect of the strong CYP3A inhibitor itraconazole on the PK of pamiparib in patients with solid tumors. All patients received a single dose of oral pamiparib 20 mg on days 1 and 7, and oral itraconazole 200 mg QD on days 3–8. The 20-mg pamiparib dose, the lowest dose strength available and one-sixth of the highest phase 1 dose (120 mg), was deemed sufficient to cover the plasma exposure increase due to complete blockade of CYP3A by itraconazole. Part B patients fasted for at least 8 h before and at least 4 h after pamiparib administration, except for day 7 upon which itraconazole administration occurred ~ 30 min after completing a meal and pamiparib administration followed within 5 min of itraconazole administration. Blood samples for PK analysis were obtained on days 1 and 7 at the same time points listed above for Part A. After completing the core phase in Part A and Part B, patients were offered participation in the extension phase, in which they were to receive pamiparib PO BID in 28-day cycles until disease progression, unacceptable toxicity, withdrawal of consent, or any other reason for discontinuation.\nas §2, §1"}, "[5]": {"design": "method as in earlier work", "details": "cited from earlier work"}, "[6]": {"tested_on": "poly(ADP-ribose) synthesis in peripheral blood mononuclear cells", "design": "method as in earlier work", "details": "pamiparib doses of 10 mg or higher; cited from earlier work"}, "P-glycoprotein": {"tested_on": "P-glycoprotein", "design": "method as in PMID 32652442", "details": "cited from earlier work"}, "[7]": {"tested_on": "cytochromes P450 3A (CYP3A) and P450 2C8", "design": "method as in unpublished data", "details": "in vitro phenotyping study; ref unpublished data; cited from earlier work"}, "[8]": {"design": "method as in not given", "details": "in vitro and animal studies; ref not given; cited from earlier work"}, "[9]": {"details": "Part A, rifampin 600 mg QD coadministration"}, "[10]": {"details": "pamiparib 20 mg alone, day 1, reference"}, "[11]": {"details": "pamiparib 20 mg day 7 with itraconazole 200 mg QD, test"}, "[12]": {"details": "Part A (N = 12), by treatment period"}, "[13]": {"details": "Part B (N = 13; N = 12 for pamiparib with itraconazole), by treatment period"}}, "note": "Values joined by “and” are separate entries in the source; they are usually repeats but may differ in a detail not shown here. Equal entries are not always repeated. Where two headings read alike, the source gives them in different places."}
{"molecule": "C[C@]12CCCN1CC1=NNC(=O)c3cc(F)cc4[nH]c2c1c34", "note": "[Pamiparib]", "values": [{"measurement": "reduction of pamiparib plasma exposure (AUC) with rifampin coadministration", "setting": "[1]; Part A, AUC0-tlast to AUC0-inf", "result": "38–43%"}, {"measurement": "reduction of pamiparib AUC0-inf (geometric mean) with rifampin versus day 1", "setting": "[1]; [9]", "result": "~43", "unit": "%"}, {"measurement": "reduction of pamiparib AUC0-tlast (geometric mean) with rifampin versus day 1", "setting": "[1]; [9]", "result": "~ 38% and 38%"}, {"measurement": "half-life", "setting": "[1]; human, plasma, oral, 60 mg, Part A, pamiparib 60 mg alone, day 1, reference, N = 9, read-out: pamiparib t1/2, median (range) (converted)", "result": 13.4, "unit": "h"}, {"measurement": "half-life", "setting": "[1]; human, plasma, oral, 60 mg, Part A, pamiparib 60 mg alone, read-out: pamiparib mean t1/2 (converted)", "result": 12.5, "unit": "h"}, {"measurement": "half-life", "setting": "[1]; human, plasma, oral, Part A, pamiparib 60 mg day 10 with rifampin 600 mg QD, test, N = 11, read-out: pamiparib t1/2, median (range) (converted)", "result": 7.7, "unit": "h"}, {"measurement": "half-life", "setting": "[1]; human, plasma, oral, Part A, pamiparib 60 mg in combination with rifampin, read-out: pamiparib mean t1/2 (converted)", "result": 7.94, "unit": "h"}, {"measurement": "AUC(0-inf)", "setting": "[1]; human, plasma, oral, Part A, pamiparib 60 mg alone, day 1, reference, N = 9, read-out: pamiparib AUC0-inf, GLSM (% CV)", "result": 29500, "unit": "ng·h/mL"}, {"measurement": "AUC(0-t)", "setting": "[1]; human, plasma, oral, Part A, pamiparib 60 mg alone, day 1, reference, N = 11, read-out: pamiparib AUC0-tlast, GLSM (% CV)", "result": 28800, "unit": "ng·h/mL"}, {"measurement": "Tmax", "setting": "[1]; human, plasma, oral, Part A, pamiparib 60 mg alone, day 1, reference, N = 11", "result": 2, "unit": "h"}, {"measurement": "Tmax", "setting": "[1]; human, plasma, oral", "result": 2, "unit": "h"}, {"measurement": "Cmax", "setting": "[1]; human, Part A, single oral pamiparib 60 mg alone, day 1, reference, N = 11, plasma, read-out: pamiparib Cmax, GLSM (% CV)", "result": 1990, "unit": "ng/mL"}, {"measurement": "half-life", "setting": "[2]; 20 mg, pamiparib 20 mg alone, day 1, reference, N = 12, read-out: pamiparib t1/2, median (range) (converted)", "result": 9.3, "unit": "h"}, {"measurement": "AUC(0-inf)", "setting": "[2]; [10]", "result": 8440, "unit": "ng·h/mL"}, {"measurement": "AUC(0-t)", "setting": "[2]; [10]", "result": 7840, "unit": "ng·h/mL"}, {"measurement": "Tmax", "setting": "[2]; [10]", "result": 2, "unit": "h"}, {"measurement": "AUC(0-inf)", "setting": "[2]; [11]", "result": 8380, "unit": "ng·h/mL"}, {"measurement": "AUC(0-t)", "setting": "[2]; [11]", "result": 7790, "unit": "ng·h/mL"}, {"measurement": "half-life", "setting": "[2]; pamiparib 20 mg day 7 with itraconazole 200 mg QD, test, N = 12, read-out: pamiparib t1/2, median (range) (converted)", "result": 11.2, "unit": "h"}, {"measurement": "Tmax", "setting": "[2]; [11]", "result": 1, "unit": "h"}, {"measurement": "half-life", "setting": "[2]; pamiparib 20 mg in combination with itraconazole, read-out: pamiparib mean t1/2 (converted)", "result": 12, "unit": "h"}, {"measurement": "Cmax", "setting": "[2]; single oral pamiparib 20 mg alone, day 1, reference", "result": 665, "unit": "ng/mL"}, {"measurement": "Cmax", "setting": "[2]; single oral pamiparib 20 mg on day 7 with itraconazole 200 mg QD (days 3-8), test", "result": 699, "unit": "ng/mL"}, {"measurement": "pamiparib mean t1/2", "setting": "[2]; pamiparib 20 mg alone", "result": 11.9, "unit": "h"}, {"measurement": "All TEAEs (any grade), patients", "setting": "[3]; [12]", "result": "1 (8.3) n (%)"}, {"measurement": "Any treatment-related TEAE, patients", "setting": "[3]; [12]", "result": "0 n (%)"}, {"measurement": "Grade >= 3 TEAE, patients", "setting": "[3]; [12]", "result": "0 n (%)"}, {"measurement": "Serious AE, patients", "setting": "[3]; [12]", "result": "0 n (%)"}, {"measurement": "Treatment-related TEAE related to both, patients", "setting": "[3]; [12]", "result": "0 n (%)"}, {"measurement": "Treatment-related TEAE related to pamiparib only, patients", "setting": "[3]; [12]", "result": "0 n (%)"}, {"measurement": "Treatment-related TEAE related to rifampin only, patients", "setting": "[3]; [12]", "result": "0 n (%)"}, {"measurement": "tolerability", "setting": "[3]; single dose 60 mg pamiparib alone or coadministered with 600 mg rifampin", "result": "well tolerated"}, {"measurement": "All TEAEs (any grade), patients", "setting": "[4]; [13]", "result": "2 (15.4) n (%)"}, {"measurement": "Any treatment-related TEAE, patients", "setting": "[4]; [13]", "result": "1 (7.7) n (%)"}, {"measurement": "Grade >= 3 TEAE, patients", "setting": "[4]; [13]", "result": "0 n (%)"}, {"measurement": "Serious AE, patients", "setting": "[4]; [13]", "result": "0 n (%)"}, {"measurement": "Treatment-related TEAE related to both, patients", "setting": "[4]; [13]", "result": "0 n (%)"}, {"measurement": "Treatment-related TEAE related to itraconazole only, patients", "setting": "[4]; [13]", "result": "0 n (%)"}, {"measurement": "Treatment-related TEAE related to pamiparib only, patients", "setting": "[4]; [13]", "result": "1 (7.7) n (%)"}, {"measurement": "Serious AE related to both, patients", "setting": "[4]; Part B, by treatment period", "result": "0 n (%)"}, {"measurement": "Serious AE related to itraconazole only, patients", "setting": "[4]; Part B, by treatment period", "result": "0 n (%)"}, {"measurement": "Serious AE related to pamiparib only, patients", "setting": "[4]; Part B, by treatment period", "result": "0 n (%)"}, {"measurement": "tolerability", "setting": "[4]; single dose 20 mg pamiparib alone or coadministered with 200 mg itraconazole", "result": "well tolerated"}, {"measurement": "accumulation ratio for AUC (95% CI)", "setting": "[5]; 60 mg BID", "result": "2.37 (95% CI, 1.61–3.50)"}, {"measurement": "accumulation ratio for Cmax (95% CI)", "setting": "[5]; 60 mg BID", "result": "1.99 (95% CI, 1.47–2.69)"}, {"measurement": "geometric mean half-life", "setting": "[5]; 60 mg BID", "result": 13.5, "unit": "h"}, {"measurement": "tolerability", "setting": "[5]; first-in-human study", "result": "well tolerated"}, {"measurement": "median time to maximum concentration (tmax)", "setting": "[5]; first-in-human study, oral", "result": "1 to 2", "unit": "h"}, {"measurement": "anti-tumor activity", "setting": "[5]; patients with high-grade epithelial non-mucinous ovarian cancer", "result": "preliminary anti-tumor activity"}, {"measurement": "sustained inhibition of poly(ADP-ribose) synthesis in peripheral blood mononuclear cells", "setting": "[6]", "result": "~ 80%"}, {"measurement": "P-glycoprotein substrate status", "setting": "P-glycoprotein", "result": "not a substrate of P-glycoprotein"}, {"measurement": "enzymes mediating metabolism", "setting": "[7]", "result": "primarily mediated by cytochromes P450 3A (CYP3A) and P450 2C8"}, {"measurement": "clastogenicity", "setting": "[8]", "result": "clastogenic activity"}]}
